pIC50: −log10 of the molar value.
Tests used:
[1] = biological target: Human immunodeficiency virus type 1 reverse transcriptase (Human immunodeficiency virus 1, UniProt Q72547, K103N); experiment: Compound was tested for inhibitory activity against HIV-1 mutant type reverse transcriptase (K103N)
[2] = biological target: Human immunodeficiency virus type 1 reverse transcriptase (Human immunodeficiency virus 1, UniProt Q72547, P236L); experiment: Compound was tested for inhibitory activity against HIV-1 mutant type reverse transcriptase (P236L)
[3] = biological target: T1, Human immunodeficiency virus type 1 reverse transcriptase (Human immunodeficiency virus 1, UniProt Q72547); experiment: Compound was tested for inhibitory activity against HIV-1 wild type reverse transcriptase
[4] = biological target: Human immunodeficiency virus type 1 reverse transcriptase (Human immunodeficiency virus 1, UniProt Q72547, Y181C); experiment: Compound was tested for inhibitory activity against HIV-1 mutant type reverse transcriptase (Y181C)
[5] = biological target: T1, Human immunodeficiency virus type 1 reverse transcriptase; experiment: Compound was tested for inhibitory activity against HIV-1 mutant type reverse transcriptase ([…])

CCN1c2ncccc2C=Cc2cccnc21
pIC50 [1]: 5.82 | pIC50 [2]: 8.00 | pIC50 [3]: 7.40 | pIC50 [4]: 5.60 | pIC50 [5]: 6.64

C1=Cc2cccnc2N(C2CC2)c2ncccc21
pIC50 [1]: 6.20 | pIC50 [2]: 8.00 | pIC50 [3]: 7.70 | pIC50 [4]: 6.02 | pIC50 [5]: 6.82

Reference: ChEMBL document CHEMBL1130928 (Bioorg Med Chem Lett, 1998)
